In publication PMC9569420 (Communications Biology, 2022):
Where “and” joins values, the source holds several entries; their conditions need not be identical. Equal entries are not always repeated.

Experiments:
MARK4 = target: T1, MARK4 (Homo sapiens, UniProt Q96L34); experiment: HotSpot kinase assay; format: biochemical; details: read-out: % Enzyme Activity (relative to DMSO controls)
T1 construct: purchased Reaction Biology Corporation

TAOK2/TAO1 = target: T2, TAOK2/TAO1 (Homo sapiens, UniProt Q9UL54); experiment: HotSpot kinase assay; format: biochemical; details: read-out: % Enzyme Activity (relative to DMSO controls)
T2 construct: purchased Reaction Biology Corporation
T2 sequence (Q9UL54 whole entry): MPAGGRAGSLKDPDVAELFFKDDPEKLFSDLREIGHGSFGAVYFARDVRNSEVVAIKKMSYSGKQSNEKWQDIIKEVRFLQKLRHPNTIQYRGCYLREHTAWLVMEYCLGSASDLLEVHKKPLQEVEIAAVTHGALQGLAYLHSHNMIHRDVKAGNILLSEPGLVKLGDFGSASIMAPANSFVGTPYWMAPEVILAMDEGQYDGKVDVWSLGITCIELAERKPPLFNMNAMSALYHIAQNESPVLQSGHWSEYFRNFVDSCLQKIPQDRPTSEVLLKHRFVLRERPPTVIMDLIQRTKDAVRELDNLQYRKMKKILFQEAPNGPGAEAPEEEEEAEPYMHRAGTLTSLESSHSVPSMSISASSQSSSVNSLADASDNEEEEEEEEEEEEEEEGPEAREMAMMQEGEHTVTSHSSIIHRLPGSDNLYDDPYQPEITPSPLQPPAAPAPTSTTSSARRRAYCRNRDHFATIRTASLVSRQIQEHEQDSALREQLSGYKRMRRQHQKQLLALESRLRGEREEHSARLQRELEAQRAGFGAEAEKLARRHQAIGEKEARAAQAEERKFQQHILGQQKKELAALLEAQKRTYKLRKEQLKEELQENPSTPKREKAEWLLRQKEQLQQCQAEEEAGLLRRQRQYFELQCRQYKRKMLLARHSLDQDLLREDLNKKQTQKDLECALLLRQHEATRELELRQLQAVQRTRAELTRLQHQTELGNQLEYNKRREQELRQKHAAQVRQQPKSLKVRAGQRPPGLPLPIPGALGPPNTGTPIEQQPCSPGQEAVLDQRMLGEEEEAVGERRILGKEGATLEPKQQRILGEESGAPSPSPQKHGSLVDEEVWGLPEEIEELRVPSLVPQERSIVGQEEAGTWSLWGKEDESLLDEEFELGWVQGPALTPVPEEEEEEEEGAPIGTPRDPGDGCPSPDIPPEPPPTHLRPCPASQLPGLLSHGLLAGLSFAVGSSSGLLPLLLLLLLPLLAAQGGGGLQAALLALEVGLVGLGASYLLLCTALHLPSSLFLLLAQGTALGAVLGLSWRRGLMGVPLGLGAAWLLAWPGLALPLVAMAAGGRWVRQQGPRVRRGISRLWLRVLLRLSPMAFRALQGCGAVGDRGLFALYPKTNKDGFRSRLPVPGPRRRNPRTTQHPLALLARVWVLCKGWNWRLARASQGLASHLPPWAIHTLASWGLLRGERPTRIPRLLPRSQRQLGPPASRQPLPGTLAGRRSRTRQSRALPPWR

SIK2 = target: T3, SIK2 (Homo sapiens, UniProt Q9H0K1); experiment: HotSpot kinase assay; format: biochemical; details: read-out: % Enzyme Activity (relative to DMSO controls)
T3 construct: purchased Reaction Biology Corporation

p70S6K/RPS6KB1 = target: T4, p70S6K/RPS6KB1 (Homo sapiens, UniProt P23443); experiment: HotSpot kinase assay; format: biochemical; details: read-out: % Enzyme Activity (relative to DMSO controls)
T4 construct: purchased Reaction Biology Corporation

CDK8/cyclin C = target: T5, CDK8/cyclin C (Homo sapiens, UniProt P49336); experiment: HotSpot kinase assay; format: biochemical; details: read-out: % Enzyme Activity (relative to DMSO controls)
T5 construct: purchased Reaction Biology Corporation

TXK = target: T6, TXK (Homo sapiens, UniProt P42681); experiment: HotSpot kinase assay; format: biochemical; details: read-out: % Enzyme Activity (relative to DMSO controls)
T6 construct: purchased Reaction Biology Corporation

TLK1 = target: T7, TLK1 (Homo sapiens, UniProt Q9UKI8); experiment: HotSpot kinase assay; format: biochemical; details: read-out: % Enzyme Activity (relative to DMSO controls)
T7 construct: purchased Reaction Biology Corporation

HIPK4 = target: T8, HIPK4 (Homo sapiens, UniProt Q8NE63); experiment: HotSpot kinase assay; format: biochemical; details: read-out: % Enzyme Activity (relative to DMSO controls)
T8 construct: purchased Reaction Biology Corporation

MKK4 = target: T9, MKK4 (Homo sapiens, UniProt P45985); experiment: HotSpot kinase assay; format: biochemical; details: read-out: % Enzyme Activity (relative to DMSO controls)
T9 construct: purchased Reaction Biology Corporation
T9 sequence (P45985 whole entry): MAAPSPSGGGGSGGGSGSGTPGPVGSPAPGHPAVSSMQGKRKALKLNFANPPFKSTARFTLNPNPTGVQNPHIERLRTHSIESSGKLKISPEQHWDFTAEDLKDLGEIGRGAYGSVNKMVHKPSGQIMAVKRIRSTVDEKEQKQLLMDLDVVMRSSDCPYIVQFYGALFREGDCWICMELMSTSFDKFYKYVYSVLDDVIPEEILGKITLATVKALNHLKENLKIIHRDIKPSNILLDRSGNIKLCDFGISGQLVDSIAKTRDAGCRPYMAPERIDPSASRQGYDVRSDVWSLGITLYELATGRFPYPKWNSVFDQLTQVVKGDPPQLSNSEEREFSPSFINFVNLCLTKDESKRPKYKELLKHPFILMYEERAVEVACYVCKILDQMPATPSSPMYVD

ARK5/NUAK1 = target: T10, ARK5/NUAK1 (Homo sapiens, UniProt O60285); experiment: HotSpot kinase assay; format: biochemical; details: read-out: % Enzyme Activity (relative to DMSO controls)
T10 construct: purchased Reaction Biology Corporation

HSV-2(G) = experiment: HSV binding assay (gD western blot), HaCat cells; format: cell-based; details: 10 μM, 4 h at 4 °C
Procedure: After 48 h incubation, plaques were counted by immunoassay using an anti–human IgG antibody peroxidase conjugate (PA1-86064, Thermo Fisher)[33]. […] Western blots were prepared and probed for gD as a marker of bound virus and β-actin as a control.

[1] = tested on: intracellular Ca2+ response to HSV-2(G); experiment: calcium kinetic measurements (Fura-2), HaCat cells; format: cell-based, human; details: for mean calcium released: CIMSS without virus (Fig 4b source data)
Procedure: The cells were then transferred to SpectraMaxMF^e temperature-regulated chamber at 37 °C (Molecular Devices Ca) without washing; photometric data for intracellular Ca^2+ concentration [Ca^2+] were generated by exciting cells at 340 and 380 nm and measuring emission at 510 nm every minute for one hour using SoftMaxPro. 5.4 software (Molecular Devices). An intracellular calibration was performed with each experiment by determining the fluorescence ratio (340:380) in the presence of Ca-free 10 mM K2EGTA buffer (Rmin) and 10 mM CaEGTA buffer containing 10 µM ionomycin (Rmax) (C-3008, Calcium Calibration Buffer Kit #1, Invitrogen Molecular Probes).

CDK18/cyclin Y (PCTK3) = target: T11, CDK18/cyclin Y (PCTK3) (Homo sapiens, UniProt Q07002); experiment: HotSpot kinase assay; format: biochemical; details: read-out: % Enzyme Activity (relative to DMSO controls)
T11 construct: purchased Reaction Biology Corporation

ULK1 = target: T12, ULK1 (Homo sapiens, UniProt O75385); experiment: biochemical; details: read-out: % Enzyme Activity (relative to DMSO controls)
T12 construct: purchased Reaction Biology Corporation

MAK = target: T13, MAK (Homo sapiens, UniProt P20794); experiment: HotSpot kinase assay; format: biochemical; details: read-out: % Enzyme Activity (relative to DMSO controls)
T13 construct: purchased Reaction Biology Corporation

CK1g3 = target: T14, CK1g3 (Homo sapiens, UniProt Q9Y6M4); experiment: HotSpot kinase assay; format: biochemical; details: read-out: % Enzyme Activity (relative to DMSO controls)
T14 construct: purchased Reaction Biology Corporation

STK32B/YANK2 = target: T15, STK32B/YANK2 (Homo sapiens, UniProt Q9NY57); experiment: HotSpot kinase assay; format: biochemical; details: read-out: % Enzyme Activity (relative to DMSO controls)
T15 construct: purchased Reaction Biology Corporation
T15 sequence (Q9NY57 whole entry): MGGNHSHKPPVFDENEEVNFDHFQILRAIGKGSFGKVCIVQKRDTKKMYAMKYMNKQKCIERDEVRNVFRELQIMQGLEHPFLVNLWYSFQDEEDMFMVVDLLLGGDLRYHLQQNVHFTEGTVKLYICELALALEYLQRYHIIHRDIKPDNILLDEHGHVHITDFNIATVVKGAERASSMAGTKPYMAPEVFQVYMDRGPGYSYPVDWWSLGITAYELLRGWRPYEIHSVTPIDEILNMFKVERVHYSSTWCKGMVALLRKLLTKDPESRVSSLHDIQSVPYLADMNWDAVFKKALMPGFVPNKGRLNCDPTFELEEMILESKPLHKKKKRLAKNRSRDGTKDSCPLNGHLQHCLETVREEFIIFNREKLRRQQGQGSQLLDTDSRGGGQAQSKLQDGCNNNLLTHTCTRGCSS

MSK1/RPS6KA5 = target: T16, MSK1/RPS6KA5 (Homo sapiens, UniProt O75582); experiment: HotSpot kinase assay; format: biochemical; details: read-out: % Enzyme Activity (relative to DMSO controls)
T16 construct: purchased Reaction Biology Corporation
T16 sequence (O75582 whole entry): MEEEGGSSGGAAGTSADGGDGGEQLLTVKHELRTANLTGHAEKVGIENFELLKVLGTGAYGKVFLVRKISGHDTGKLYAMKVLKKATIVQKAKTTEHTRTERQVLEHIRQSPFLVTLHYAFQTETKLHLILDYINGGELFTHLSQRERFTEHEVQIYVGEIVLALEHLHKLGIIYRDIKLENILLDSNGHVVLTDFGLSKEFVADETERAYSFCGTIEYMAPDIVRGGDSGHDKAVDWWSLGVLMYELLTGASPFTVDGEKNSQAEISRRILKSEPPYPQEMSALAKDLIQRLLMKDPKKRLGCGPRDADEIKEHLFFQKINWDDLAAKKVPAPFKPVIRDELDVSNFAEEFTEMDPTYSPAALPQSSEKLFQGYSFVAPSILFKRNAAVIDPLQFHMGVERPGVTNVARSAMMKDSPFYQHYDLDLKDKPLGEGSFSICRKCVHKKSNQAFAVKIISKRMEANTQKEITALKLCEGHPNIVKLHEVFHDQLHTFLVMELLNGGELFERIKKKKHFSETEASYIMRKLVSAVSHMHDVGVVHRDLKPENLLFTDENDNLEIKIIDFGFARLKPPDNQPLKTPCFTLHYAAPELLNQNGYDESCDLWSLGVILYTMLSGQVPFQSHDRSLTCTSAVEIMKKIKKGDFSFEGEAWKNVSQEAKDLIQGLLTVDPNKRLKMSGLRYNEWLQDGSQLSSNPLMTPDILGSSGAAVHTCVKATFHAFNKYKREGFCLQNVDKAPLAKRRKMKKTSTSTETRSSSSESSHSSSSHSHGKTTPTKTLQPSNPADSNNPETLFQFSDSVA

ERBB2/HER2 = target: T17, ERBB2/HER2 (Homo sapiens, UniProt P04626); experiment: biochemical; details: read-out: % Enzyme Activity (relative to DMSO controls)
T17 construct: purchased Reaction Biology Corporation

GRK2 = target: T18, GRK2 (Homo sapiens, UniProt P25098); experiment: biochemical; details: read-out: % Enzyme Activity (relative to DMSO controls)
T18 construct: purchased Reaction Biology Corporation

PKCb1 = target: T19, PKCb1 (Homo sapiens, UniProt P05771); experiment: biochemical; details: read-out: % Enzyme Activity (relative to DMSO controls)
T19 construct: purchased Reaction Biology Corporation

MST4 = target: T20, MST4 (Homo sapiens, UniProt Q9P289); experiment: HotSpot kinase assay; format: biochemical; details: read-out: % Enzyme Activity (relative to DMSO controls)
T20 construct: purchased Reaction Biology Corporation

MEK3 = target: T21, MEK3 (Homo sapiens, UniProt P46734); experiment: HotSpot kinase assay; format: biochemical; details: read-out: % Enzyme Activity (relative to DMSO controls)
T21 construct: purchased Reaction Biology Corporation

FAK/PTK2 = target: T22, FAK/PTK2 (Homo sapiens, UniProt Q05397); experiment: HotSpot kinase assay; format: biochemical; details: read-out: % Enzyme Activity (relative to DMSO controls)
T22 construct: purchased Reaction Biology Corporation
T22 sequence (Q05397 whole entry): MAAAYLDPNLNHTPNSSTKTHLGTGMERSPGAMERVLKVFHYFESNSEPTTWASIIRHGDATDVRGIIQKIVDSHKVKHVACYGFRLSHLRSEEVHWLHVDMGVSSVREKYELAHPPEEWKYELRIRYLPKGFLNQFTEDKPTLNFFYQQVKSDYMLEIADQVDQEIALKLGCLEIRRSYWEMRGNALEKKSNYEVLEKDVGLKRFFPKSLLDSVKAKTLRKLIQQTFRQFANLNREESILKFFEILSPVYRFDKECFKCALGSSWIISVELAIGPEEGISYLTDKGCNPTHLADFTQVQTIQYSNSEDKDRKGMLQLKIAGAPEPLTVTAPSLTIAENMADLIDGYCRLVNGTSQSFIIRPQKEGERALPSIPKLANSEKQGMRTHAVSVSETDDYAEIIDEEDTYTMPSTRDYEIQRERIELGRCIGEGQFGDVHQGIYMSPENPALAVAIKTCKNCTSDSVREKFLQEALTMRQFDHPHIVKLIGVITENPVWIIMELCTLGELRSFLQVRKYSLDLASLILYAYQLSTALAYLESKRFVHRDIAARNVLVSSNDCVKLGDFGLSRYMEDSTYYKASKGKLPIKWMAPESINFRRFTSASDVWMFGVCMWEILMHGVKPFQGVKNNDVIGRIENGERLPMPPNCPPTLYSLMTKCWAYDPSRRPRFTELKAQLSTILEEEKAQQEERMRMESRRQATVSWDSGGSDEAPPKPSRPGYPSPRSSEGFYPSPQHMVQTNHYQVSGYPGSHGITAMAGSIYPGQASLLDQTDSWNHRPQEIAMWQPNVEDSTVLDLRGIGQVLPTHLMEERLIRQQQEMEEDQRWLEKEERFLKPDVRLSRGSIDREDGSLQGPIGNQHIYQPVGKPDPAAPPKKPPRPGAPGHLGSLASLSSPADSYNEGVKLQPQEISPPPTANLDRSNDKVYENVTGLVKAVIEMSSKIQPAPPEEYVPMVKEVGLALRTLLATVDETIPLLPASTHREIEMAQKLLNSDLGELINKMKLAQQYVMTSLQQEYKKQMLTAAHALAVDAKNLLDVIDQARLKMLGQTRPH

GRK3 = target: T23, GRK3 (Homo sapiens, UniProt P35626); experiment: HotSpot kinase assay; format: biochemical; details: read-out: % Enzyme Activity (relative to DMSO controls)
T23 construct: purchased Reaction Biology Corporation

PLSCR1 = format: cell-based, monkey; details: 30 min; drugs 10 μM, immunoglobulins 10 μg/ml
STK22D/TSSK1 = target: T24, STK22D/TSSK1 (Homo sapiens, UniProt Q9BXA7); experiment: HotSpot kinase assay; format: biochemical; details: read-out: % Enzyme Activity (relative to DMSO controls)
T24 construct: purchased Reaction Biology Corporation
T24 sequence (Q9BXA7 whole entry): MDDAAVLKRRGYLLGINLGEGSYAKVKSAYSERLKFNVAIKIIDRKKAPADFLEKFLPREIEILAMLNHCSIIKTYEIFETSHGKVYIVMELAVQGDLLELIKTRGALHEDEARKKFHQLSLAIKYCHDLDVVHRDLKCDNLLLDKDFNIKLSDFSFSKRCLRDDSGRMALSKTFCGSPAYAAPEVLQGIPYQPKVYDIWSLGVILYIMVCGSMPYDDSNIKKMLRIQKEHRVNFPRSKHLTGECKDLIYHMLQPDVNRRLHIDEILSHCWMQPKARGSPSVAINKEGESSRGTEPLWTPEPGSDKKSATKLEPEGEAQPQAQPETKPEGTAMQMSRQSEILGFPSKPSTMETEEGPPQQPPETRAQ

T1 sequence (Q96L34 whole entry): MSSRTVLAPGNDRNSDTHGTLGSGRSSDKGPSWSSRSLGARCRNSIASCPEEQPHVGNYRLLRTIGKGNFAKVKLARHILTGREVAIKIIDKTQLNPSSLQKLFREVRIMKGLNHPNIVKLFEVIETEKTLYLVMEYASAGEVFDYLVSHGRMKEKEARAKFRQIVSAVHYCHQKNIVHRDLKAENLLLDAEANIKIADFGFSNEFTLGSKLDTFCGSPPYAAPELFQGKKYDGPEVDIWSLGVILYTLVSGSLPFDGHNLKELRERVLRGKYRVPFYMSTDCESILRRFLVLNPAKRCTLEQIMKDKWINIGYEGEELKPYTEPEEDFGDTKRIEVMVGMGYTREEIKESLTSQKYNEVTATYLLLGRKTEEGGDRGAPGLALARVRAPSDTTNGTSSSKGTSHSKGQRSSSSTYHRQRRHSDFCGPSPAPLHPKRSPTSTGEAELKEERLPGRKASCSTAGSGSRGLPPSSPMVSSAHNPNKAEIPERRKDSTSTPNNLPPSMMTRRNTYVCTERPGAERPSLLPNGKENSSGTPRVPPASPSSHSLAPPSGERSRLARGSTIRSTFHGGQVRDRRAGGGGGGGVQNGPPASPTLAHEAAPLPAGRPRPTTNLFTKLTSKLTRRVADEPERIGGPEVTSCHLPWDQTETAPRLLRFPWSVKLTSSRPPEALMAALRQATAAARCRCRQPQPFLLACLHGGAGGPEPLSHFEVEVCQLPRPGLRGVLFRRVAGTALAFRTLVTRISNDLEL

**Q.** Which results are given for CO[C@@H]1[C@H](N(C)C(=O)CCC(=O)NCc2cn(CCCS(=O)(=O)O)nn2)C[C@H]2O[C@]1(C)n1c3ccccc3c3c4c(c5c6ccccc6n2c5c31)C(=O)NC4 [CIMSS]?
**A.** remaining activity at 10 µM (MARK4): 0.77%; remaining activity at 10 µM (TAOK2/TAO1): 36.3%; remaining activity at 10 µM (SIK2): 1.49%; remaining activity at 10 µM (p70S6K/RPS6KB1): 5.46%; remaining activity at 10 µM (CDK8/cyclin C): 10.1%; remaining activity at 10 µM (TXK): 3.64%; remaining activity at 10 µM (TLK1): 26.1%; remaining activity at 10 µM (HIPK4): 10.7%; remaining activity at 10 µM (MKK4): 99%; remaining activity at 10 µM (ARK5/NUAK1): 1.83%; HSV binding to cells (HSV-2(G)): did not block; extended Ca2+ release ([1]; 10 µM, first hour pi): significant reduction; initial Ca2+ transient ([1]; 10 µM, first three minutes): did not block; mean calcium released ([1]; 3 minutes): 38.88 and 30.45 and 39.3074 and 44.7233; mean calcium released ([1]; 1 hour): 90.67 and 95.94 and 99.48 and 102.73; remaining activity at 10 µM (CDK18/cyclin Y (PCTK3)): 41.3%; remaining activity at 10 µM (ULK1): 13.6%; remaining activity at 10 µM (MAK): 13.2%; remaining activity at 10 µM (CK1g3): 97.2%; remaining activity at 10 µM (STK32B/YANK2): 0.96%; remaining activity at 10 µM (MSK1/RPS6KA5): 1.53%; remaining activity at 10 µM (ERBB2/HER2): 35.9%; remaining activity at 10 µM (GRK2): 29.5%; remaining activity at 10 µM (PKCb1): 2.83%; remaining activity at 10 µM (MST4): 1.35%; remaining activity at 10 µM (MEK3): 49.3%; remaining activity at 10 µM (FAK/PTK2): 15.5%; remaining activity at 10 µM (GRK3): 46.9%; Phosphorylation of PLSCR1 (PLSCR1): preserved; remaining activity at 10 µM (STK22D/TSSK1): 2.71%
